From patent US12004868B2, “Liposomal mitigation of drug-induced inhibition of the cardiac IKr channel” (Signpath Pharma, Inc., priority 2011, dated 2024)
Where a name gives a salt, the structure may show the parent alone. Read-outs that look alike come from different tables or passages of the source. Marks after values point to notes of the source that are not given here.

Legend:
[1] = cited from earlier work; for incidence of QT prolongation: patients, Aloxi at doses above 2.25 mg, sotalol 1288 patients, vandetanib grade 3/4
calcium channel = details: literature; read-out: calcium channel blocking EC50; cited from earlier work
rabbit heart [2] = tested on: rabbit heart
NaV1.5 = NaV1.5 (Homo sapiens, UniProt Q14524); details: literature; read-out: NaV1.5 IC50 (Doherty et al); cited from earlier work
NaV1.5, sequence (Q14524 whole entry): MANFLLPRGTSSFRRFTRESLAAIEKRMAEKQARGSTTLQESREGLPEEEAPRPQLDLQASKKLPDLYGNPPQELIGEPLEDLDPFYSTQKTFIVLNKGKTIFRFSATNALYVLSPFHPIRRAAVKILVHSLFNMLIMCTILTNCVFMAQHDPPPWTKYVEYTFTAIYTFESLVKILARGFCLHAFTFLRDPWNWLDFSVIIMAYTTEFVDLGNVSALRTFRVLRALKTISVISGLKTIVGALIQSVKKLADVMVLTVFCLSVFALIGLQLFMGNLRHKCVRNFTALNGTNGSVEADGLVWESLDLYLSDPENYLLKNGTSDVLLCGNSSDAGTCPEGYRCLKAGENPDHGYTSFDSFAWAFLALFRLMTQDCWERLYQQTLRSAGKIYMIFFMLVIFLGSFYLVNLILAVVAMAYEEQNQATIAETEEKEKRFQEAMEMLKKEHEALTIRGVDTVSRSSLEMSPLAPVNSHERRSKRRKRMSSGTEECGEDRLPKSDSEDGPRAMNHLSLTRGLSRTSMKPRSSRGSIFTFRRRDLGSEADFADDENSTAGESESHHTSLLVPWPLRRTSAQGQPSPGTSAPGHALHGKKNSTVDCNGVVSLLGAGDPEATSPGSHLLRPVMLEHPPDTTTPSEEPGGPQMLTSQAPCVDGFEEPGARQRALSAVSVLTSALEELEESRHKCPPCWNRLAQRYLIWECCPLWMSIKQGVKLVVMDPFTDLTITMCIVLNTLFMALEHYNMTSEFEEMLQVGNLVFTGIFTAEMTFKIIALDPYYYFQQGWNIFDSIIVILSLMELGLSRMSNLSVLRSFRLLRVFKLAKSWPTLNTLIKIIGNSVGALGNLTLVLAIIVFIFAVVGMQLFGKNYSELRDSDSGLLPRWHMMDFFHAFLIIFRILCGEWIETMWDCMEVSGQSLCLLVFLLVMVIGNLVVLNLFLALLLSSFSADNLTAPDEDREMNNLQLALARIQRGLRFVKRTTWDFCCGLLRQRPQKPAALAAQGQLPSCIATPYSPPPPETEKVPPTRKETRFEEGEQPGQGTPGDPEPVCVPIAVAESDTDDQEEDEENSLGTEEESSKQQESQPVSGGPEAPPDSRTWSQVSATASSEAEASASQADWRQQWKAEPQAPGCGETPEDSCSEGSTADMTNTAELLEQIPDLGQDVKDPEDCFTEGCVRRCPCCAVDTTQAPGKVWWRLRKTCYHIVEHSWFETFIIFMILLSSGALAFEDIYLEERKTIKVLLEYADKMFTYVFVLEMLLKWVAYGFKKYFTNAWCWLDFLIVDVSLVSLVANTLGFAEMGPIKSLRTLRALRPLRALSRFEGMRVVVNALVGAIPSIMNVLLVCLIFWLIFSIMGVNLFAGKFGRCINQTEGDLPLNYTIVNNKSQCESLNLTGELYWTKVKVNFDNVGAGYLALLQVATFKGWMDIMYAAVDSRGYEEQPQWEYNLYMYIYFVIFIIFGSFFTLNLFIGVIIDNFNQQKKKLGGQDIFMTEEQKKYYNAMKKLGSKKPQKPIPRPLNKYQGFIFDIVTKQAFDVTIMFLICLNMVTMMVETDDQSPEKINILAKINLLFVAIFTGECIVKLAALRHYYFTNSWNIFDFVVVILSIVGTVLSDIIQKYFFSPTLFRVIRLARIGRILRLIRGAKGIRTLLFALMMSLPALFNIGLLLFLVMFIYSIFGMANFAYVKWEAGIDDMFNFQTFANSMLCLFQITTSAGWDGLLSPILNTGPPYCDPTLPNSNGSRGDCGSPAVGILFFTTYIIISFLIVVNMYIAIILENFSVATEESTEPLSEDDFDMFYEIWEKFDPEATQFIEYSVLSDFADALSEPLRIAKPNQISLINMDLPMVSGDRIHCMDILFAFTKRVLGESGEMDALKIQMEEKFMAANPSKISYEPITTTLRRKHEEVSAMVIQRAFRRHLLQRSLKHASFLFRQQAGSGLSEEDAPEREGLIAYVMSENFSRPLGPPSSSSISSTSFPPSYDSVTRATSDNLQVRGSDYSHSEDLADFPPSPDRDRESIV

CaV = details: literature; read-out: CaV IC50 (Doherty et al); cited from earlier work
[3] = cited from earlier work; for Cmax: read-out: steady state Cmax
[4] = crizotinib intravenously; nilotinib orally up to 600 mg/kg; cited from earlier work
in vitro rabbit heart [5] = experiment: In vitro rabbit heart QTc intervals; set-up: dose or concentration left out as unconfirmed; details: liposomes 9:1
in vitro rabbit hearts = experiment: Left ventricular pressure in in vitro rabbit hearts
IKs = IKs (Homo sapiens, UniProt P51787); details: literature; cited from earlier work
IKs, sequence (P51787 whole entry): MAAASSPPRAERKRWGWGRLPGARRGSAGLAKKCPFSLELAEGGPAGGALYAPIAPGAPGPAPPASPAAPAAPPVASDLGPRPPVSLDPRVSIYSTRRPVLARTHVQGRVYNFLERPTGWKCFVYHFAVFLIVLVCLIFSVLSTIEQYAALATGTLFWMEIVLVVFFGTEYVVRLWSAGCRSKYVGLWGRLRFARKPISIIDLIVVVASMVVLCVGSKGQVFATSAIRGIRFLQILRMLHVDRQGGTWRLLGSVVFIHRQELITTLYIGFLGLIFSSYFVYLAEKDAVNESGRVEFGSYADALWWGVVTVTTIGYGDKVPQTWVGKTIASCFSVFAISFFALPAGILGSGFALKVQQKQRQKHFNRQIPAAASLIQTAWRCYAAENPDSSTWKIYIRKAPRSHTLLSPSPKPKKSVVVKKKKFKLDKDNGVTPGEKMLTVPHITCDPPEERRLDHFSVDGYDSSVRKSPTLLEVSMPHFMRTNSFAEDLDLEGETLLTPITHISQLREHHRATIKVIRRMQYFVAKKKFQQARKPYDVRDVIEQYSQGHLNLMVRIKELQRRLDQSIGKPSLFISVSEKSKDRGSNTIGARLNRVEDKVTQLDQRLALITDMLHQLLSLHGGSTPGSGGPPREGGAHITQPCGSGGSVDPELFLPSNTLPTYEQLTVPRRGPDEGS

[6] = cited from earlier work
hERG = hERG (Homo sapiens, UniProt Q12809); details: cited from earlier work
hERG, sequence (Q12809 whole entry): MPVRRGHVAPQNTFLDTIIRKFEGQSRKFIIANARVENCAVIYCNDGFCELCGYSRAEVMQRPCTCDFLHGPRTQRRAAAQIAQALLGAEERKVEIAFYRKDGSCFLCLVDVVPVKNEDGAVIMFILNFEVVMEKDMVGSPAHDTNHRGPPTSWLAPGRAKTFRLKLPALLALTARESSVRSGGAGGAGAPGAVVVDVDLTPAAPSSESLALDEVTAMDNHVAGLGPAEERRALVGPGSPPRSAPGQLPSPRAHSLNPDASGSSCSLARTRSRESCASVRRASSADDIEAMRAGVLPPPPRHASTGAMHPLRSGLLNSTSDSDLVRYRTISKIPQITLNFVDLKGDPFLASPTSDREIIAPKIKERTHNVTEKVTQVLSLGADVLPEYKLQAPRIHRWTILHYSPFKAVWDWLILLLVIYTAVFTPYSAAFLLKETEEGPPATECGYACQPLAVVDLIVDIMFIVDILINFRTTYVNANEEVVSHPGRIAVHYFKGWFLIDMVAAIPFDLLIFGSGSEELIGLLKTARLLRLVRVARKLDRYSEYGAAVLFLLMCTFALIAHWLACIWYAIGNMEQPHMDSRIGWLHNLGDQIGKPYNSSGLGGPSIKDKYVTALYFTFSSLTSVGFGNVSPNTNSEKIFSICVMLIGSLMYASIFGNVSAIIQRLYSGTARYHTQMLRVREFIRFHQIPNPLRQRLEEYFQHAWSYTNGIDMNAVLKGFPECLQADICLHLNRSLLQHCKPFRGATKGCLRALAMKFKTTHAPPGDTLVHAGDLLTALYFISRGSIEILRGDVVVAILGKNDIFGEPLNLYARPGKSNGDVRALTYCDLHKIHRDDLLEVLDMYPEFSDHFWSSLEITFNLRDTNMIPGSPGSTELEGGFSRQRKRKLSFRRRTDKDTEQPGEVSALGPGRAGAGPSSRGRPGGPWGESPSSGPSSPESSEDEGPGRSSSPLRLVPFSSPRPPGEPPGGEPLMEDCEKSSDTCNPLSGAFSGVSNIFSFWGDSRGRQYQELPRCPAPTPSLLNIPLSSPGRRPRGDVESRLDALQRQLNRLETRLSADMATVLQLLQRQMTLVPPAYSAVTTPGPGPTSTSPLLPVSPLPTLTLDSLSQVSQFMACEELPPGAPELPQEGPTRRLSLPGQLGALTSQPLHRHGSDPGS

[7] = tested on: isolated rabbit Purkinje fibers; details: 5 μM; cited from earlier work
rabbit heart [8] = tested on: rabbit heart; remark: listed apart in the source
in vitro rabbit heart [9] = tested on: in vitro rabbit heart
[10] = cited from earlier work; remark: listed apart in the source
[11] = crizotinib 2 mg/kg, vs baseline
[12] = crizotinib 3 mg/kg, vs baseline
[13] = cancer patients given 500 mg BID
[14] = children with cancer, 280 mg/m^2 BID
[15] = read-out: hERG IC50, literature
[16] = Chinese patients given 400 mg BID
[17] = cancer patients given 400 mg BID

In the case of `O=C1c2cccc3c2[C@H](CCC3)CN1[C@@H]1CN2CCC1CC2` [Aloxi, palonasitron HCL], the “incidence of EKG adverse events” value ([1]; doses above 2.25 mg) is listed as > 2%, the incidence of bradycardia ([1]; doses above 2.25 mg) is listed as 4% and the “incidence of QT prolongation” value [1] is listed as 5%.

For `CC(C)COCC(CN(Cc1ccccc1)c1ccccc1)N1CCCC1` (centres unmarked) [Bepridil], the EC50 (calcium channel) is given as 10 µM.

With `C[C@@H](Oc1cc(-c2cnn(C3CCNCC3)c2)cnc1N)c1c(Cl)ccc(F)c1Cl` [Crizotinib] the “QRS Intervals” value (rabbit heart [2]; crizotinib 1 mg/kg IV) was 48 ms, the “QT Intervals” value (rabbit heart [2]; crizotinib 1 mg/kg IV) was 189* ms and the “QTc interval (Van der Water)” value (rabbit heart [2]; crizotinib 1 mg/kg IV) was 251* ms. For the same compound, the “QRS Intervals” value (rabbit heart [2]; crizotinib 2 mg/kg IV) was 53* ms, the “QT Intervals” value (rabbit heart [2]; crizotinib 2 mg/kg IV) was 205* ms and the “QTc interval (Van der Water)” value (rabbit heart [2]; crizotinib 2 mg/kg IV) was 264* ms. For the same compound, the “RR Intervals” value (rabbit heart [2]; crizotinib 2 mg/kg IV) was 324* ms, the QT interval prolongation (rabbit heart [2]; [11]) was 34 ms and the RR interval prolongation (rabbit heart [2]; [11]) was 67 ms. For the same compound, the “QRS Intervals” value (rabbit heart [2]; crizotinib 3 mg/kg IV) was 56* ms, the “QT Intervals” value (rabbit heart [2]; crizotinib 3 mg/kg IV) was 218* ms and the “QTc interval (Van der Water)” value (rabbit heart [2]; crizotinib 3 mg/kg IV) was 273* ms. The “RR Intervals” value (rabbit heart [2]; crizotinib 3 mg/kg IV) was 367* ms, the PR interval prolongation (rabbit heart [2]; [12]) was 23 ms and the QRS interval prolongation (rabbit heart [2]; [12]) was 13 ms. For the same compound, the QT interval prolongation (rabbit heart [2]; [12]) was 48 ms, the “QTc interval prolongation (Van der Water)” value (rabbit heart [2]; [12]) was 38 ms and the RR interval prolongation (rabbit heart [2]; [12]) was 110 ms. The “RR Intervals” value (rabbit heart [2]; crizotinib loading dose 1 mg/kg IV) was 294* ms, the IC50 (NaV1.5) was 3.5 µM and the IC50 (CaV) was 3.1 µM. For the same compound, the “steady state Cmax” value [3, 13] was 650 ng/mL, the Cmax [3, 13] was 1500 nM and the “steady state Cmax” value [3, 14] was 630 ng/mL. The Cmax [3, 14] was 1400 nM, the “ECG effect in dogs (in words)” value [4] was “increased PR-, QRS- and QT-intervals” and the “effect on the QTc interval of in vitro rabbit hearts (in words)” value (in vitro rabbit heart [5]) was “dose dependent prolongation of the QTc interval”. The “effect on LVP (in words)” value (in vitro rabbit hearts) was “decrease in LVP”.

In the case of `COc1cccc2c1C(=O)c1c(O)c3c(c(O)c1C2=O)C[C@@](O)(C(=O)CO)C[C@@H]3O[C@H]1C[C@H](N)[C@H](O)[C@H](C)O1` [Doxorubicin], the IC50 (IKs) is given as 4.78 µM and the QTc prolongation ([6]; 30 uM) is given as 13%.

In the case of `CCCCc1oc2ccc(NS(C)(=O)=O)cc2c1C(=O)c1ccc(OCCCN(CCCC)CCCC)cc1` [Dronedarone], the IC50 (hERG; [15]) is listed as 0.07 µM and the IC50 (hERG; read-out: hERG IC50, wild type hERG tails at −40 mV following activation at +30 mV) is listed as 0.059 µM.

In the case of `O=C(CCCN1CCC(O)(c2ccc(Cl)cc2)CC1)c1ccc(F)cc1` [Haloperidol], the “hERG blocker potency (in words)” value (hERG) is listed as “high potency hERG blocker”.

For `CS(=O)(=O)CCNCc1ccc(-c2ccc3ncnc(Nc4ccc(OCc5cccc(F)c5)c(Cl)c4)c3c2)o1` [Lapatinib], the “action potential duration (in words)” value [7] is given as “prolong action potential duration”.

In the case of `CCC(=O)C(CC(C)N(C)C)(c1ccccc1)c1ccccc1` (centres unmarked) [Methadone], the IC50 (hERG; [15]) is given as 4.8 µM.

In the case of `COc1c(N2C[C@@H]3CCCN[C@@H]3C2)c(F)cc2c(=O)c(C(=O)O)cn(C3CC3)c12` [Moxifloxacin], the QTc prolongation ([6]; 100 uM) is listed as 22%.

In the case of `Cc1cn(-c2cc(NC(=O)c3ccc(C)c(Nc4nccc(-c5cccnc5)n4)c3)cc(C(F)(F)F)c2)cn1` [Nilotinib], the “PR Intervals” value (rabbit heart [8]; nilotinib 2 mg/kg IV) is reported as 78 ms, the “QRS Intervals” value (rabbit heart [8]; nilotinib 2 mg/kg IV) is reported as 44* ms and the “QT Intervals” value (rabbit heart [8]; nilotinib 2 mg/kg IV) is reported as 182* ms. For the same compound, the “QTc Intervals (Van der Water)” value (rabbit heart [8]; nilotinib 2 mg/kg IV) was 245* ms, the “PR Intervals” value (rabbit heart [8]; nilotinib 4 mg/kg IV) was 80 ms and the “QRS Intervals” value (rabbit heart [8]; nilotinib 4 mg/kg IV) was 46* ms. The “QT Intervals” value (rabbit heart [8]; nilotinib 4 mg/kg IV) was 201* ms, the “QTc Intervals (Van der Water)” value (rabbit heart [8]; nilotinib 4 mg/kg IV) was 262* ms and the “RR Intervals” value (rabbit heart [8]; nilotinib 4 mg/kg IV) was 307 ms. For the same compound, the QRS interval prolongation (rabbit heart [8]; nilotinib 4 mg/kg, vs baseline) was 6 ms, the QT interval prolongation (rabbit heart [8]; nilotinib 4 mg/kg, vs baseline) was 41 ms and the QTc interval prolongation (rabbit heart [8]; nilotinib 4 mg/kg, vs baseline) was 36 ms. For the same compound, the “RR Intervals” value (rabbit heart [8]; nilotinib loading dose 2 mg/kg IV) was 273 ms, the “effect on the QTc interval of in vitro rabbit hearts (in words)” value (in vitro rabbit heart [9]) was “dose dependent prolongation of the QTc interval” and the IC50 (CaV) was > 3 µM. For the same compound, the “steady state Cmax” value [3, 16] was 2161 ng/mL, the Cmax [3, 16] was 4100 nM and the “steady state Cmax” value [3, 17] was 1754 ng/mL. The Cmax [3, 17] was 3300 nM.

For `[K+]` [Potassium], the “reduction of the QTc interval” value ([10]; plasma concentration raised by 1.5 mEq/L above baseline) is listed as 24%.

For `COc1ccc(CN(CCN(C)C)c2ccccn2)cc1` [Pyrilamine], the “hERG blocker potency (in words)” value (hERG) is listed as “low potency hERG blocker”.

In the case of `CC(C)NCC(O)c1ccc(NS(C)(=O)=O)cc1` (centres unmarked) [Sotalol], the “incidence of QT prolongation” value [1] is listed as 2%.

In the case of `COc1cc2c(Nc3ccc(Br)cc3F)ncnc2cc1OCC1CCN(C)CC1` [Vandetanib], the “incidence of QT prolongation” value [1] is listed as > 5%.

In the case of `CC(=O)Oc1ccc2c3c1O[C@H]1[C@@H](OC(C)=O)C=C[C@H]4[C@@H](C2)N(C)CC[C@@]341` [heroin], the IC50 (hERG) is listed as 427 µM.

In the case of `CC(C)NCC(O)COc1cccc2ccccc12` (centres unmarked) [propranolol], the “decrease of risk of cardiac events” value ([10]; LQT1) is listed as 81%, the “subjects still developing cardiac events on adequate treatment” value ([10]; LQT1) is listed as 10% and the “subjects still developing cardiac events” value ([10]; LQT2) is listed as 23%. For the same compound, the “decrease of cardiac event risk” value ([10]; LQT2 subjects) was 59% and the “subjects developing cardiac events on adequate treatment” value ([10]; LQT3) was 32%.

For Arsenic trioxide, the “hERG blocker potency (in words)” value (hERG; literature) is given as “ineffective hERG blocker” and the IC50 (hERG; [15]) is given as > 300 µM.
